Measured values reported in patent US12540131B2 (Merck Sharp & Dohme LLC, priority 2019, dated 2026).

Target: GST tagged truncated human mutant G2019S LRRK2 (Homo sapiens (Human), UniProt Q5S007, G2019S)
Assay: LRRK2 Km ATP LanthaScreen Assay
Assay type: biochemical
Details: G2019S LRRK2, 134 μM ATP (Km ATP), mean values
Procedure, shortened: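 Enzyme (GST-tagged, truncated) was preincubated with compound for 15 min at RT in 50 mM Tris pH 8.5, 10 mM MgCl2, 0.01% Brij-35, 1 mM EGTA, 2 mM DTT and 0.05 mM orthovanadate. Fluorescein-LRRKtide and 134 μM ATP (Km) were then added for 90 min. EDTA and Tb-anti-pERM antibody stopped the reaction; the TR-FRET 520/495 ratio gave 4-parameter IC50s, reported as mean pIC50.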

Chain of GST tagged truncated human mutant G2019S LRRK2 (Q5S007 970-2527 G2019S): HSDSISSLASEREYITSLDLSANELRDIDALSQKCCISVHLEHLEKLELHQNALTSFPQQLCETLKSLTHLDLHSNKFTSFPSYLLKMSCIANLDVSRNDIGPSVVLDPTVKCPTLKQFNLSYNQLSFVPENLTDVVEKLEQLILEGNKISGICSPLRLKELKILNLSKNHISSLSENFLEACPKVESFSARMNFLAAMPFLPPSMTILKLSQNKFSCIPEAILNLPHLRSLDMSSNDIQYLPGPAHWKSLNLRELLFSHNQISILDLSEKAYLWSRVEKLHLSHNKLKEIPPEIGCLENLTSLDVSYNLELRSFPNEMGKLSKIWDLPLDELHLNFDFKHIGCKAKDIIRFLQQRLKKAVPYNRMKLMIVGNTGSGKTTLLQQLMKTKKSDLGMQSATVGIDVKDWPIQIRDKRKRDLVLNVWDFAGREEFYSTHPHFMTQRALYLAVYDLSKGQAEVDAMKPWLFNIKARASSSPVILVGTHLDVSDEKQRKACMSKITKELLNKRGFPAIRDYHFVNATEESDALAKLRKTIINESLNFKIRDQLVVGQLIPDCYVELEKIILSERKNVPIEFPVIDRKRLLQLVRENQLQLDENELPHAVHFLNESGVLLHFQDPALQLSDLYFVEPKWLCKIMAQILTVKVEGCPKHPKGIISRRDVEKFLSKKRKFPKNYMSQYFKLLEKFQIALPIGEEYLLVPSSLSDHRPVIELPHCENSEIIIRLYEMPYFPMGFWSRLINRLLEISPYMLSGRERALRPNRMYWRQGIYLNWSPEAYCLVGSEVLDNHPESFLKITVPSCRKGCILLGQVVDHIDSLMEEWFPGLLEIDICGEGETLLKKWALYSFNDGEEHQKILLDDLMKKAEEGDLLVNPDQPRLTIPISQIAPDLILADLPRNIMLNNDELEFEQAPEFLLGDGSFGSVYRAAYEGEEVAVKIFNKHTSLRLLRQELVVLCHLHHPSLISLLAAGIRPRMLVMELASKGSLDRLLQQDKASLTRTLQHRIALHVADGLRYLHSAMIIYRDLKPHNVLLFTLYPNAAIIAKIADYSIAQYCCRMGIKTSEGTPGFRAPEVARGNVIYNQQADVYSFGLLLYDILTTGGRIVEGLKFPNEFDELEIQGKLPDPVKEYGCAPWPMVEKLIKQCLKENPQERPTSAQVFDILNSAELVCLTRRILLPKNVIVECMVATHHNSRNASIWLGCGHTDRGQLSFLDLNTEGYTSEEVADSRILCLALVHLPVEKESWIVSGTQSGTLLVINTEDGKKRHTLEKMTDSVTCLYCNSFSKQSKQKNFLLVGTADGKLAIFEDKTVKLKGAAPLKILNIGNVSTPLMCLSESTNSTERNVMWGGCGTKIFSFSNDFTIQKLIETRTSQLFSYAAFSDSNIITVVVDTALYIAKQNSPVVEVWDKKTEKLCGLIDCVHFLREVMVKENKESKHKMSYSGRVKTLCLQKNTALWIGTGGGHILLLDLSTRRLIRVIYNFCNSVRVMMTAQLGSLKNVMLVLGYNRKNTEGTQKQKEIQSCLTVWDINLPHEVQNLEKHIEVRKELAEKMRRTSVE

Compared with Cc1cc(Nc2ncc3cc(Cl)c(C4CCN([C@]5(C)COC[C@@H]5O)CC4)cc3n2)n(C2CC2)n1 (single isomer, unassigned) [Ex-1.28, (3S,4S) or (3R,4R) 4-(4-{6-chloro-2-[(1-cyclopropyl-3-methyl-1H-pyrazol-5-yl)amino]quinazolin-7-yl}piperidin-1-yl)-4-methyloxolan-3-ol], Cc1c(Nc2ncc3cc(Cl)c(C4CCN(C5(C)CCCC5O)CC4)cc3n2)cnn1C1CC1 (single isomer, unassigned) [Ex-1.20, (1R,2S) or (1S,2R) or (1S,2S) or (1R,2R) 2-(4-(6-chloro-2-((1-cyclopropyl-5-methyl-1H-pyrazol-4-yl)amino)quinazolin-7-yl)piperidin-1-yl)-2-methylcyclopentan-1-ol] is lower in “LRRK2 pIC50” value: 9.12 for the first, 8.84 for the second.

Compared with Cc1cc2cnc(Nc3cnn(C)c3Cl)nc2cc1C1CCN([C@]2(C)COC[C@@H]2O)CC1 (single isomer, unassigned) [Ex-2.80, (3S,4S) or (3R,4R) 4-(4-{2-[(5-chloro-1-methyl-1H-pyrazol-4-yl)amino]-6-methylquinazolin-7-yl}piperidin-1-yl)-4-methyloxolan-3-ol], Cn1ncc(Nc2ncc3cc(Cl)c([C@@H]4CCN([C@@]5(C)COC[C@H]5O)C[C@H]4F)cc3n2)c1Cl (single isomer, unassigned) [Ex-4.238, (3S,4S)(3S,4S) or (3S,4S)(3R,4R) or (3R,4R)(3S,4S) or (3R,4R)(3R,4R) 4-(4-{6-chloro-2-[(5-chloro-1-methyl-1H-pyrazol-4-yl)amino]quinazolin-7-yl}-3-fluoropiperidin-1-yl)-4-methyloxolan-3-ol] is higher in “LRRK2 pIC50” value: 7.14 for the first, 7.40 for the second.

Cc1cc(Nc2ncc3cc(C)c([C@@H]4CCN([C@@H]5COC[C@@H]5O)C[C@H]4F)cc3n2)n(C)n1 (single isomer, unassigned) [Ex-5.9, (3S,4S)(3S,4S) or (3S,4S)(3R,4R) or (3R,4R)(3S,4S) or (3R,4R)(3R,4R) 4-(4-{2-[(1,3-dimethyl-1H-pyrazol-5-yl)amino]-6-methylquinazolin-7-yl}-3-fluoropiperidin-1-yl)oxolan-3-ol] and Cc1cc2cnc(Nc3cnn(CC(C)(C)O)c3C)nc2cc1[C@H]1CCN(C2COC2)C[C@@H]1F (single isomer, unassigned) [Ex-5.6, (3S,4S) or (3R,4R) 1-[4-({7-[3-fluoro-1-(oxetan-3-yl)piperidin-4-yl]-6-methylquinazolin-2-yl}amino)-5-methyl-1H-pyrazol-1-yl]-2-methylpropan-2-ol] are within 0.2 log units of each other in “LRRK2 pIC50” value: 8.49 for the first, 8.68 for the second.

Compared with Cc1nn(CC(C)(C)O)cc1Nc1ncc2cc(Cl)c(C3CCN(C4COC4)CC3)cc2n1 [Ex-2.61, 1-[4-({6-chloro-7-[1-(oxetan-3-yl)piperidin-4-yl]quinazolin-2-yl}amino)-3-methyl-1H-pyrazol-1-yl]-2-methylpropan-2-ol], Cc1cc2cnc(Nc3cnn(C4CC4)c3Cl)nc2cc1C1CCN(C2COC2)CC1 [Ex-4.84, N-(5-chloro-1-cyclopropyl-1H-pyrazol-4-yl)-6-methyl-7-[1-(oxetan-3-yl)piperidin-4-yl]quinazolin-2-amine] is higher in “LRRK2 pIC50” value: 8.66 for the first, 9.01 for the second.

CC1(Cn2ncc(Nc3ncc4cc(Cl)c([C@@H]5CCN(C6COC6)C[C@H]5F)cc4n3)c2Cl)COC1 (single isomer, unassigned) [Ex-2.11, (3S,4S) or (3R,4R) 6-chloro-N-{5-chloro-1-[(3-methyloxetan-3-yl)methyl]-1H-pyrazol-4-yl}-7-[3-fluoro-1-(oxetan-3-yl)piperidin-4-yl]quinazolin-2-amine] and F[C@@H]1CN(C2COC2)CC[C@H]1c1cc2nc(Nc3cnn(C4CC4(F)F)c3Cl)ncc2cc1Cl (single isomer, unassigned) [Ex-8.28, (R)(3S,4S) or (S)(3S,4S) or (R)(3R,4R) or (S)(3R,4R) 6-chloro-N-[5-chloro-1-(2,2-difluorocyclopropyl)-1H-pyrazol-4-yl]-7-[3-fluoro-1-(oxetan-3-yl)piperidin-4-yl]quinazolin-2-amine] are within 0.2 log units of each other in “LRRK2 pIC50” value: 9.10 for the first, 9.04 for the second.

First: Cc1c(Nc2ncc3cc(Cl)c(C4CCN(C[C@H](O)c5cccc(F)c5)CC4)cc3n2)cnn1C1CC1 [Ex-4.195, (1R)-2-(4-{6-chloro-2-[(1-cyclopropyl-5-methyl-1H-pyrazol-4-yl)amino]quinazolin-7-yl}piperidin-1-yl)-1-(3-fluorophenyl)ethan-1-ol]
Second: Cc1c(Nc2ncc3cc(Cl)c(C4CCN([C@H]5COC[C@H]5O)CC4)cc3n2)cnn1C12CC(C1)C2 (single isomer, unassigned) [Ex-2.27, (3S,4S) or (3R,4R) 4-[4-(2-{[1-(bicyclo[1.1.1]pentan-1-yl)-5-methyl-1H-pyrazol-4-yl]amino}-6-chloroquinazolin-7-yl)piperidin-1-yl]oxolan-3-ol]
The “LRRK2 pIC50” value of the first is lower: 8.24 for the first, 8.87 for the second.

Cc1cc2cnc(Nc3cnn(C4CC4)c3Cl)nc2cc1C1CCC(C)(O)CC1 (stereo not drawn) [Ex-2.64, cis- or trans-4-{2-[(5-chloro-1-cyclopropyl-1H-pyrazol-4-yl)amino]-6-methylquinazolin-7-yl}-1-methylcyclohexan-1-ol] and [2H]C1([2H])OC([2H])([2H])C1N1CCC(c2cc3nc(Nc4cnn(C5CC5)c4Cl)ncc3cc2Cl)CC1 [Ex-8.16, 6-chloro-N-(5-chloro-1-cyclopropyl-1H-pyrazol-4-yl)-7-(1-(oxetan-3-yl-2,2,4,4-d4)piperidin-4-yl)quinazolin-2-amine] are within 0.2 log units of each other in “LRRK2 pIC50” value: 9.02 for the first, 9.18 for the second.

O=S1(=O)CC(N2CC[C@H](c3cc4nc(Nc5cnn(C6CC6)c5Cl)ncc4cc3Cl)[C@@H](F)C2)C1 (single isomer, unassigned) and CCN1CC[C@@H](c2cc3nc(Nc4cnn(CC(C)(C)O)c4Cl)ncc3cc2Cl)[C@H](F)C1 (single isomer, unassigned) [Ex-4.4, (3S,4S) or (3R,4R) 1-(5-chloro-4-((6-chloro-7-(1-ethyl-3-fluoropiperidin-4-yl)quinazolin-2-yl)amino)-1H-pyrazol-1-yl)-2-methylpropan-2-ol] are within 0.2 log units of each other in “LRRK2 pIC50” value: 9.02 for the first, 8.88 for the second.

In the case of [2H]C([2H])([2H])n1ncc(Nc2ncc3cc(Cl)c(C4CCN(C5(C)COC5)CC4)cc3n2)c1Cl [Ex-2.72, 6-chloro-N-(5-chloro-1-(methyl-d3)-1H-pyrazol-4-yl)-7-(1-(3-methyloxetan-3-yl)piperidin-4-yl)quinazolin-2-amine], the “LRRK2 pIC50” value is reported as 8.90.

In the case of Cc1cc2cnc(Nc3cnn(C)c3C(F)(F)F)nc2cc1C1CCN([C@]2(C)COC[C@@H]2O)CC1 (single isomer, unassigned) [Ex-5.16, (3S,4S) or (3R,4R) 4-methyl-4-(4-(6-methyl-2-((1-methyl-5-(trifluoromethyl)-1H-pyrazol-4-yl)amino)quinazolin-7-yl)piperidin-1-yl)tetrahydrofuran-3-ol], the “LRRK2 pIC50” value is reported as greater than 9.20.
With COC(C)(C)Cn1ncc(Nc2ncc3cc(Cl)c(C4CCN(C5COC5)CC4)cc3n2)c1Cl [Ex-2.10, 6-chloro-N-[5-chloro-1-(2-methoxy-2-methylpropyl)-1H-pyrazol-4-yl]-7-[1-(oxetan-3-yl)piperidin-4-yl]quinazolin-2-amine] the “LRRK2 pIC50” value was greater than 9.20.
For CC1(n2ncc(Nc3ncc4cc(Cl)c(C5CCN(C6COC6)CC5)cc4n3)c2Cl)CC1 [Ex-4.56, 6-chloro-N-[5-chloro-1-(1-methylcyclopropyl)-1H-pyrazol-4-yl]-7-[1-(oxetan-3-yl)piperidin-4-yl]quinazolin-2-amine], the “LRRK2 pIC50” value was greater than 9.20.
[2H]C([2H])([2H])n1ncc(Nc2ncc3cc(Cl)c(C4CCN([C@H]5COC[C@H]5O)CC4)cc3n2)c1Cl (single isomer, unassigned) [Ex-2.70, (3S,4S) or (3R,4R) 4-(4-(6-chloro-2-((5-chloro-1-(methyl-d3)-1H-pyrazol-4-yl)amino)quinazolin-7-yl)piperidin-1-yl)tetrahydrofuran-3-ol] was tested, and the “LRRK2 pIC50” value was greater than 9.20.

Same assay, conditions: G2019S LRRK2, 134 μM ATP (Km ATP), mean values; read-out: LRRK2 pIC50 (converted)

Going from CC1(N2CCC(n3cc(Nc4ncc5cc(Cl)c(C6CC67CC7)cc5n4)cn3)CC2)COC1 (single isomer, unassigned) [Ex-2.6, (S) or (R) 6-chloro-N-{1-[1-(3-methyloxetan-3-yl)piperidin-4-yl]-1H-pyrazol-4-yl}-7-(spiro[2.2]pentan-1-yl)quinazolin-2-amine] to CC1(N2CC3(CC(n4cc(Nc5ncc6cc(Cl)c(C7CC78CC8)cc6n5)cn4)C3)C2)COC1 (single isomer, unassigned) [Ex-2.8, (S) or (R) 6-chloro-N-{1-[2-(3-methyloxetan-3-yl)-2-azaspiro[3.3]heptan-6-yl]-1H-pyrazol-4-yl}-7-(spiro[2.2]pentan-1-yl)quinazolin-2-amine], the IC50 rises from less than 0.631 nM to 1.26 nM.

Going from CC(C)(O)CN1CCC(c2cc3nc(Nc4cnn(C5CC5)c4)ncc3cc2Cl)C1 (single isomer, unassigned) [Ex-1.4, (S) or (R) 1-(3-(6-chloro-2-((1-cyclopropyl-1H-pyrazol-4-yl)amino)quinazolin-7-yl)pyrrolidin-1-yl)-2-methylpropan-2-ol] to Cc1c(Nc2ncc3cc(Cl)c(C4CCN(C5(C)COC5)CC4)cc3n2)cnn1C1CCOC1 (single isomer, unassigned) [Ex-2.26, (S) or (R) 6-chloro-7-[1-(3-methyloxetan-3-yl)piperidin-4-yl]-N-[5-methyl-1-(oxolan-3-yl)-1H-pyrazol-4-yl]quinazolin-2-amine], the IC50 falls from 24 nM to less than 0.631 nM.

Cc1nsc(Nc2ncc3cc(Cl)c([C@@H]4CCN(C5COC5)C[C@H]4F)cc3n2)c1Cl (single isomer, unassigned) [Ex-4.88, (3S,4S) or (3R,4R) 6-chloro-N-(4-chloro-3-methyl-1,2-thiazol-5-yl)-7-[3-fluoro-1-(oxetan-3-yl)piperidin-4-yl]quinazolin-2-amine] showed an IC50 of 3.8 nM.
